Structures can show the parent of a compound that is named as a salt. Where two headings read alike, the source gives them in different places.
Experiments:
sPLA2-X protein [1] = biological target: T1, sPLA2-X protein (Homo sapiens, UniProt O15496); assay: sPLA2-X enzyme inhibition assay (thio-PC substrate, DTNB detection, absorbance 410 nm); assay type: biochemical; design: made in house; host or cells: E. coli; details: class symbols
T1 sequence (O15496 43-165): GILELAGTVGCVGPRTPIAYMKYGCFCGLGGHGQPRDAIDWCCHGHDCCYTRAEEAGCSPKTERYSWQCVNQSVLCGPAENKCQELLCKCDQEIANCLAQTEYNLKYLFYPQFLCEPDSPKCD

sPLA2-X protein [2] = biological target: T1, sPLA2-X protein; assay: SPR single cycle kinetic binding analysis against sPLA2-X; design: His tag (implied by capture on NTA surface and by anti-His antibody); details: protein captured cross-linked on NTA surface, 1:1 fit
Protocol: sPLA2-X protein was captured on flow cell 2-4 on activated NTA surface (NTA Series S Sensorchip (Cytiva)) after dilution in 1×HBS-EP+buffer (Cytiva), 10 mM CaCl2 to 0.01 mg/mL with a flow rate of 5 μL/min for 60 sec. Single cycle kinetic binding analysis was performed using 10 mM stock solution of LY531590 (Cayman Chemical, item #18267) (prepared in DMSO diluted 1:5 in running buffer (lx HBS-EP+buffer (Cytiva)+10 mM CaCl2+2% DMSO) from 10 to 0.016 μM. Flow cell 1 was used as a reference surface and 350 mM EDTA (Cytiva) was used to regenerate the surface. DMSO solvent correction was included. A 1:1 fit was used for the kinetics analysis.
SPLA2-X protein was captured cross-linked on flow cell 2, 3, and 4 with activated NTA surface (NTA Series S Sensorchip (Cytiva)) at 0.01 mg/mL with a flow rate of […] for 60 sec. Single cycle kinetic binding analysis was performed using a 50 mM stock solution of Compound 5 (prepared in DMSO) diluted 1:5 in running buffer (1×HIBS-EP+buffer (Cytiva)+10 mM CaCl2+2% o DMSO) from 800 to 1.2 nMV. Flow cell 1 was used as a reference surface. DMSO solvent correction was included. A 1:1 fit was used for the kinetics and steady state affinity analysis.

[3] = biological target: T2, recombinant human sPLA2-V enzyme (Homo sapiens, UniProt P39877); assay: sPLA2-V enzyme inhibition assay (thio-PC substrate, DTNB detection, absorbance 410 nm); assay type: biochemical; details: class symbols
T2 construct: made in house; host or cells: E. coli
T2 sequence (P39877 21-138): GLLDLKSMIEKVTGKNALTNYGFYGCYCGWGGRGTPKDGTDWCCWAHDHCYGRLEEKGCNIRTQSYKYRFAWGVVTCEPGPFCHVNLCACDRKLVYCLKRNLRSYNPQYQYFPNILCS

[4] = biological target: T3, recombinant human sPLA2-IIA enzyme (Homo sapiens, UniProt P14555); assay: sPLA2-IIA enzyme inhibition assay (thio-PC substrate, DTNB detection, absorbance 410 nm); assay type: biochemical; details: class symbols
T3 construct: made in house; host or cells: E. coli
T3 sequence (P14555 21-144): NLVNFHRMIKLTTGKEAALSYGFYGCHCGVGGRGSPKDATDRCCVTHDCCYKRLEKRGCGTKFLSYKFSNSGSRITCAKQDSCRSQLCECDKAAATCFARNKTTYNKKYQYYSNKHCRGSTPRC

[5] = read-out: sPLA2 Type X Inhibition (IC50; nM)
[6] = read-out: sPLA2 Type V Inhibition (IC50; nM)
[7] = read-out: sPLA2 Type IIa Inhibition (IC50; nM)

Structure (SMILES) | IC50 (sPLA2-X protein [1]; [5]) [nM] | Rmax (sPLA2-X protein [2]) | Kd (sPLA2-X protein [2]; kinetics and steady state affinity) [µM] | IC50 [3, 6] [nM] | IC50 [4, 7] [nM] | IC50 (sPLA2-X protein [1]; sPLA2 Type X Inhibition (IC50; nM)) [nM] | IC50 ([3]; sPLA2 Type V Inhibition (IC50; nM)) [nM] | IC50 ([4]; sPLA2 Type IIa Inhibition (IC50; nM)) [nM]
NC(=O)c1sc2ccc(OC(F)(F)F)cc2c1-c1cccc(CCC(=O)O)c1 [Compound 5, 3-(3-(2-carbamoyl-5-(trifluoromethoxy)benzo[b]thiophen-3-yl)phenyl)propanoic acid] | 20 to 50 | 2.13 | 0.00802 | 1500 to 5000 | 200 to 500 |  |  | 
CS(=O)(=O)OCC(F)(F)c1cccc(-n2c(C(N)=O)cc3ccc(OC(F)(F)F)cc32)c1 [Compound 47, 2-(3-(2-carbamoyl-6-(trifluoromethoxy)-1H-indol-1-yl)phenyl)-2,2-difluoroethyl methanesulfonate] | > 200 |  |  | > 5000 | > 1000 |  |  | 
NC(=O)c1cc2ccc(OC(F)(F)F)cc2n1-c1cncc(CCC(=O)O)c1 [Compound 53] | 50 to 200 |  |  | > 5000 | > 1000 |  |  | 
NC(=O)c1sc2ccc(OC(F)(F)F)cc2c1-c1cccc(C2CC2C(=O)O)n1 (stereo not drawn) [Compound 56, trans-2-(6-(2-carbamoyl-5-(trifluoromethoxy)benzo[b]thiophen-3-yl)pyridin-2-yl)cyclopropane-1-carboxylic acid] | < 20 |  |  | > 5000 | > 1000 |  |  | 
NC(=O)c1[se]c2ccc(OC(F)(F)F)cc2c1-c1cccc(C2CC2C(=O)O)n1 (stereo not drawn) [Compound 57, trans-2-(6-(2-carbamoyl-5-(trifluoromethoxy)benzo[b]selenophen-3-yl)pyridin-2-yl)cyclopropane-1-carboxylic acid] |  |  |  |  |  | 50 to 200 | > 5000 | > 1000
NC(=O)c1nc2ccc(OC(F)(F)F)cc2n1-c1cccc(C2CC2C(=O)O)n1 (stereo not drawn) [Compound 58, trans-2-(6-(2-carbamoyl-6-(trifluoromethoxy)-1H-benzo[d]imidazol-1-yl)pyridin-2-yl)cyclopropane-1-carboxylic acid] | > 200 |  |  | > 5000 | > 1000 |  |  | 
NC(=O)c1cc2ccc(OC(F)(F)F)cc2n1-c1cccc(N2CC(F)(F)C2)n1 [Compound 68, 1-(6-(3,3-difluoroazetidin-1-yl)pyridin-2-yl)-6-(trifluoromethoxy)-1H-indole-2-carboxamide] | 50 to 200 |  |  | > 5000 | > 1000 |  |  | 

Second part, led by results:

IC50 (sPLA2-X protein [1]; [5]) [nM] | Rmax (sPLA2-X protein [2]) | Kd (sPLA2-X protein [2]; kinetics and steady state affinity) [µM] | IC50 [3, 6] [nM] | IC50 [4, 7] [nM] | Structure (SMILES) | IC50 (sPLA2-X protein [1]; sPLA2 Type X Inhibition (IC50; nM)) [nM] | IC50 ([3]; sPLA2 Type V Inhibition (IC50; nM)) [nM] | IC50 ([4]; sPLA2 Type IIa Inhibition (IC50; nM)) [nM]
> 200 |  |  | > 5000 | > 1000 | CC(C)(C)OC(=O)NC1(c2cccc(-n3c(C(N)=O)cc4ccc(OC(F)(F)F)cc43)n2)CCC1 [Compound 48, tert-butyl (1-(6-(2-carbamoyl-6-(trifluoromethoxy)-1H-indol-1-yl)pyridin-2-yl)cyclobutyl)carbamate] |  |  | 
> 200 |  |  | > 5000 | > 1000 | NC(=O)c1cc2ccc(OC(F)(F)F)cc2n1-c1cccc(C2(N)CCC2)n1 [Compound 49, 1-(6-(1-aminocyclobutyl)pyridin-2-yl)-6-(trifluoromethoxy)-1H-indole-2-carboxamide TFA salt] |  |  | 
20 to 50 |  |  | > 5000 | > 1000 | NC(=O)c1cc2ccc(OC(F)(F)F)cc2n1-c1cccc(C2(NCC(=O)O)CCC2)n1 [Compound 50, (1-(6-(2-carbamoyl-6-(trifluoromethoxy)-1H-indol-1-yl)pyridin-2-yl)cyclobutyl)glycine] |  |  | 
50 to 200 |  |  | 1500 to 5000 | > 1000 | NC(=O)c1cc2ccc(OC(F)(F)F)cc2n1-c1cccc(N2CC(C(=O)O)C2)n1 [Compound 52, 1-(6-(2-carbamoyl-6-(trifluoromethoxy)-1H-indol-1-yl)pyridin-2-yl)azetidine-3-carboxylic acid] |  |  | 
< 20 |  |  | > 5000 | > 1000 | NC(=O)c1cc2ccc(OC(F)(F)F)cc2n1-c1cccc(C2(CC(=O)O)CC2)n1 [Compound 59, 2-(1-(6-(2-carbamoyl-6-(trifluoromethoxy)-1H-indol-1-yl)pyridin-2-yl)cyclopropyl)acetic acid] |  |  | 
20 to 50 |  |  | 1500 to 5000 | > 1000 | CC(C)(CC(=O)O)c1cccc(-n2c(C(N)=O)cc3ccc(OC(F)(F)F)cc32)n1 [Compound 62, 3-(6-(2-carbamoyl-6-(trifluoromethoxy)-1H-indol-1-yl)pyridin-2-yl)-3-methylbutanoic acid] |  |  | 
> 200 |  |  | > 5000 | > 1000 | NC(=O)c1cc2ccc(OC(F)(F)F)cc2n1-c1cccc(N2CC[C@H]2C(=O)O)n1 [Compound 69, (S)-1-(6-(2-carbamoyl-6-(trifluoromethoxy)-1H-indol-1-yl)pyridin-2-yl)azetidine-2-carboxylic acid] |  |  | 
< 20 |  |  | 500 to 1500 | > 1000 | NC(=O)c1cc2ccc(OC(F)(F)F)cc2n1-c1cccc(N2CC[C@@H]2C(=O)O)n1 [Compound 70, (R)-1-(6-(2-carbamoyl-6-(trifluoromethoxy)-1H-indol-1-yl)pyridin-2-yl)azetidine-2-carboxylic acid] |  |  | 

Source: patent publication US20260034111A1, “NOVEL HETEROCYCLES AS sPLA2-X INHIBITORS” (Cayman Chemical Company Incorporated, priority 2022, published 2026)
